7 compounds from US11603355B2, “Charged ion channel blockers and methods for use” (Nocion Therapeutics, Inc., priority 2019, dated 2023) can be followed below.

Where a name gives a salt, the structure may show the parent alone.

Assay [1] deals with T1, NaV1.7 (Homo sapiens, UniProt Q15858).
T1 construct: expressed in transfected cells; host or cells: HEK293 (tetracycline-inducible)
Kind of assay: Manual patch clamp, internal block of NaV1.7 current. The format is cell-based. The note with it: % inhibition at 3 μM test concentration, compound in internal solution, HEK293 cells; for inhibition at 3 µM: read-out: Nav1.7 Intracellular Inhibition. The gist of the method:
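Whole-cell recordings at room temperature in tetracycline-induced HEK293 cells, compound in CsCl internal solution (pH 7.2), held at −100 mV with 10 ms steps to −20 mV. Four 30 s 5 Hz trains after 5 min baseline; fraction of peak inward current remaining computed as Itest/Ibaseline.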
Background: In patch-clamp work, channel activity is measured electrically.

The target in assay [2] is T1, NaV1.7. Nature of the assay: Manual patch clamp, external block of NaV1.7 current. The format is cell-based. The note with it: % inhibition at 10 μM test concentration, compound in external solution, HEK293 cells; for inhibition at 10 µM: read-out: Nav1.7 Extracellular Inhibition. On the procedure: Representative compounds of the invention were synthesized according to the described methods and tested for the ability to inhibit voltage-gated sodium channels.
NaV1.7 was expressed in HEK293 cells upon induction with tetracycline. Cells were cultured in DMEM containing 10% dialyzed Fetal Bovine Serum (VWR, Radnor, Pa.), 1% Glutamax (VWR, Radnor, Pa.), 1% Penicillin-Streptomycin (VWR, Radnor, Pa.), 100 mg/L Hygromycin (Thermo Fisher Scientific, Waltham, Mass. and 5 mg/L Blasticidin (Alfa Aesar, Haverhill, Mass.). Cells were grown and maintained at 37° C. in a humidified environment containing 10% CO2 in air. Cells were detached from the culture flask for passage and harvested using 0.05% Trypsin-EDTA (Thermo Fisher Scientific, Waltham, Mass.). To induce NaV1.7, cells were induced with tetracycline (0.1-1 μg/mL, IBI Scientific, Peosta, Iowa) the day before recording and plated onto 24-well plates. Cells were washed with DPBS (VWR, Radnor, Pa.), trypsinized and then triturated five times in 10 mL of growth media to break apart cell aggregates. For one 24-well plate, 2 mL of cell suspension was mixed with 23 mL of fresh growth media and 0.1-1 μg/mL tetracycline added. 1 ml of mixed media with cells was then added to each well of a 24-well plate, with a 12 mm coverslip already placed in the bottom of the well. Cells were then incubated in 37° C. and 10% CO2 overnight.
The intracellular solution contained the following (in mM) CsCl 135, NaCl 10, EGTA 10, HEPES 10, MgCl2 2, adjusted to pH 7.2 with CsOH. The external solution was a normal Ringer solution containing (in mM) NaCl 155, HEPES 10, glucose 10, KCl 3.5, CaCl2 1.5, MgCl2 1 adjusted to pH 7.4 with NaOH. CsCl is from Alfa Aesar, Haverhill, Mass. All other chemicals are from Sigma-Aldrich, St. Louis, Mo. In order to test the degree of internal block by test compounds the compounds were dissolved in internal solution at the indicated test concentration. […] In order to test the degree of external block by test compounds the compounds were dissolved in external solution at the indicated test concentration.
18-24 hours after cells were induced with tetracycline, coverslips were placed into a chamber filled with Normal Ringer solution at room temperature and the chamber placed on a microscope. Pipettes were pulled from borosilicate glass on a P97 puller (Sutter Instrument, Novato, Calif.) and polished with a MF-830 Microforge (Narishige International USA, Inc., Amityville, N.Y.) to have a resistance of 1.5-2.5 MΩ when filled with CsCl internal solution at room temperature. Healthy cells (those that are round and translucent with no visible blemishes) were chosen for seal formation. A seal was formed between the pipette and the cell, and a brief pulse of suction was used to “break in” and establish the whole-cell configuration. The membrane potential was held at −100 mV before the voltage protocol began. Only cells with series resistance between 1.5-5 MΩ were retained for analysis. The voltage protocol was as follows: Cells were held at −100 mV for 12 ms followed by a hyperpolarizing step to −105 mV for 12 ms to monitor the leak. Cells were then stepped back to −100 mV for 40 ms. Cells were then depolarized to −20 mV for 10 ms and then returned to −100 mV for 26 ms.
Once the recording was started, the voltage protocol was run at 30 second intervals for 5 minutes to get a stable baseline. This is followed by 5 Hz stimulation of the same voltage protocol run until the end of experiment. […] The test compound is added for 5 minutes before washing out with normal Ringer's solution. Currents were recorded using PatchMaster software with Heka EPC10 (HEKA Electronics, Lambrecht, Germany). Only cells with inward current amplitudes at −20 mV between 400 pA and 4 nA were accepted. In addition, cells having leak currents greater than 10% of their current amplitudes were discarded. […]

By inhibition is commonly meant how much of the control response was suppressed.

T1 sequence (Q15858 whole entry): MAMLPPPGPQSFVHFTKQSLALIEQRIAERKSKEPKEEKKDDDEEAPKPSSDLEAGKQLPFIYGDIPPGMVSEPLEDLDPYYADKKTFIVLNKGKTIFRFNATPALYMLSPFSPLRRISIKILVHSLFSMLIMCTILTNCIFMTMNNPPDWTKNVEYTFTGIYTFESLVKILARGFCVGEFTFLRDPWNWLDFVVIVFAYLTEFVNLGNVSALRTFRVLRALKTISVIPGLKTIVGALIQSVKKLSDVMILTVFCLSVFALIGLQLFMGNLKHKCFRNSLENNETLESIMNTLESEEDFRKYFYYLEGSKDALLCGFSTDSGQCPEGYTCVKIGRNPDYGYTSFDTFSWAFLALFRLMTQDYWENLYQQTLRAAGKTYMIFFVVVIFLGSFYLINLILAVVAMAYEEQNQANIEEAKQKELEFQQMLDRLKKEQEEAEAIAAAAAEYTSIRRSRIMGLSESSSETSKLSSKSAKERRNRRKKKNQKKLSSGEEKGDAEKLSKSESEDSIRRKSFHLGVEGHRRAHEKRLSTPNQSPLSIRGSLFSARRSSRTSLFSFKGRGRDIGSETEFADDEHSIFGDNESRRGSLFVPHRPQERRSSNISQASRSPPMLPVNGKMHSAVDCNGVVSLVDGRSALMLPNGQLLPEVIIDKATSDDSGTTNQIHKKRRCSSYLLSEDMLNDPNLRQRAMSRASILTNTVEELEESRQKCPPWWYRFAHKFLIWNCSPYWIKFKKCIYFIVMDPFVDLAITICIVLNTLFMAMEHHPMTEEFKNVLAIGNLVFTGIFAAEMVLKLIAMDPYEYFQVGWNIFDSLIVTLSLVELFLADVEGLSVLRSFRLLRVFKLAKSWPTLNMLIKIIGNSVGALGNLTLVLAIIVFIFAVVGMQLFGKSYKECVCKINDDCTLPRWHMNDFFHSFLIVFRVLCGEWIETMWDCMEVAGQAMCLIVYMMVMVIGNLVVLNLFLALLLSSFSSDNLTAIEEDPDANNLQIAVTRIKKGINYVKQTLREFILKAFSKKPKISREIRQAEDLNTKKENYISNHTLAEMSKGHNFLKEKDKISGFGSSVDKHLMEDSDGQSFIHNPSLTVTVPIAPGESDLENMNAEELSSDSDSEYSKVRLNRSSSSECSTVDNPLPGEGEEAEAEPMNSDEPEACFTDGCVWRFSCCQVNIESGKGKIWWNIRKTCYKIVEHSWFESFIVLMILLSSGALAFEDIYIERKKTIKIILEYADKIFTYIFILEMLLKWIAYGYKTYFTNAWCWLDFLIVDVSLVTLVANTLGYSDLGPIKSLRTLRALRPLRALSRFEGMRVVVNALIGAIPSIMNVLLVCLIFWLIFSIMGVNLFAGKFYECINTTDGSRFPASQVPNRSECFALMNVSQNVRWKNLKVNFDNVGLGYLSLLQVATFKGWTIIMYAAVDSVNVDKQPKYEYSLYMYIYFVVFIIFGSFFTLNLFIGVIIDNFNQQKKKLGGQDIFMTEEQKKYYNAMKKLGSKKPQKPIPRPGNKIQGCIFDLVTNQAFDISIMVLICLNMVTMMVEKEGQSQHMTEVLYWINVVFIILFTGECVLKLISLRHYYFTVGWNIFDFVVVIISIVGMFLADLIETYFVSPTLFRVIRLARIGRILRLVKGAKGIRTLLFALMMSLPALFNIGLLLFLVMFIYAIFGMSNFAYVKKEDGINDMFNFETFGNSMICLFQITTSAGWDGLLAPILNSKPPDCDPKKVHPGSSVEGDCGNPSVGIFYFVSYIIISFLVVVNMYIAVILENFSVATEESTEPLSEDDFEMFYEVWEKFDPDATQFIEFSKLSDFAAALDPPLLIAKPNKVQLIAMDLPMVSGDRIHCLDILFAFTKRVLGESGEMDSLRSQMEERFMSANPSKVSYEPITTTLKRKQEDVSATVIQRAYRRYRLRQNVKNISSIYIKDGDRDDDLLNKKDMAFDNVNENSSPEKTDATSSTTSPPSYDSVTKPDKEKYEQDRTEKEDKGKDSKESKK

With `Cc1cccc(C)c1NC(=O)C[N+]1(Cc2ccccc2)CCCC(C(N)=O)C1.[Br-]` (mixture of isomers) [Compound 53A, 1-benzyl-3-carbamoyl-1-(2-((2,6-dimethylphenyl)amino)-2-oxoethyl) piperidin-1-ium bromide], on NaV1.7 [1], the inhibition at 3 µM lay in the range of 70 to 90%. The inhibition at 10 µM on NaV1.7 [2] is less than 40%.

Regarding `CCCOC(=O)C1CCC[N+](CC(=O)Nc2c(C)cccc2C)(Cc2ccccc2)C1.[Br-]` (centres unmarked) [Compound 47A, 1-benzyl-1-(2-((2,6-dimethylphenyl)amino)-2-oxoethyl)-3-(propoxycarbonyl) piperidin-1-ium bromide], the inhibition at 3 µM at NaV1.7 [1] is more than 90%. The inhibition at 10 µM on NaV1.7 [2] fell in the range of 40 to 70%.

As for `Cc1cccc(C)c1N(C)C(=O)C[N+]1(Cc2ccccc2)CCCCCC1` [Compound 38A, 1-benzyl-1-(2-((2,6-dimethylphenyl) (methyl)amino)-2-oxoethyl) azepan-1-ium formate], the inhibition at 3 µM on NaV1.7 [1] was 70 to 90%. Besides, on NaV1.7 [2], the inhibition at 10 µM is less than 40%.

In the case of `Cc1cccc(C)c1N1CCC([N+]2(Cc3ccccc3)CCCCCCC2)C1=O.[Br-]` (centres unmarked) [Compound 90A], the inhibition at 3 µM on NaV1.7 [1] is more than 90%. In addition, the inhibition at 10 µM at NaV1.7 [2] is less than 40%.

As to `Cc1cccc(C)c1NC(=O)C[N+]1(Cc2ccccc2)CCCC(C(=O)OC(C)C)C1` (mixture of isomers) [Compound 46A, 1-benzyl-1-(2-((2,6-dimethylphenyl)amino)-2-oxoethyl)-3-(isopropoxycarbonyl) piperidin-1-ium trifluoroacetate salt], the inhibition at 3 µM on NaV1.7 [1] was more than 90%. Moreover, at NaV1.7 [2], the inhibition at 10 µM fell in the range of 40 to 70%.

Consider `Cc1cccc(F)c1NC(=O)C[N+]1(Cc2ccccc2)CCCCCC1.[Br-]` [Compound 69A, 1-benzyl-1-(2-((2-fluoro-6-methylphenyl)amino)-2-oxoethyl)azepan-1-ium bromide], for which the inhibition at 3 µM at NaV1.7 [1] was more than 90%. Moreover, the inhibition at 10 µM on NaV1.7 [2] is less than 40%.

Consider “1-benzyl-1-(2-((2-(dimethylcarbamoyl)-6-methylphenyl) amino)-2-oxoethyl) azepan-1-ium bromide [Compound 81A]”, for which, at NaV1.7 [1], the “Nav1.7 Intracellular Inhibition” value is “+++ (“+++” 90-70%)”. The “Nav1.7 Extracellular Inhibition” value at NaV1.7 [2] is “+ (“+” (<40%))”.
